In patent publication US5140011A, “Amino acid derivatives which have renin inhibiting activity” (Hoffmann-La Roche, Inc., priority 1989, dated 1992) one finds IC50 data, which are given here for nine compounds.

As usually defined, the IC50 is the concentration that inhibits the measured activity by half. Lower therefore signals inhibition by little substance.

This assay has as its target T1, human renin (Homo sapiens, UniProt P00797).
T1 sequence (P00797 67-406): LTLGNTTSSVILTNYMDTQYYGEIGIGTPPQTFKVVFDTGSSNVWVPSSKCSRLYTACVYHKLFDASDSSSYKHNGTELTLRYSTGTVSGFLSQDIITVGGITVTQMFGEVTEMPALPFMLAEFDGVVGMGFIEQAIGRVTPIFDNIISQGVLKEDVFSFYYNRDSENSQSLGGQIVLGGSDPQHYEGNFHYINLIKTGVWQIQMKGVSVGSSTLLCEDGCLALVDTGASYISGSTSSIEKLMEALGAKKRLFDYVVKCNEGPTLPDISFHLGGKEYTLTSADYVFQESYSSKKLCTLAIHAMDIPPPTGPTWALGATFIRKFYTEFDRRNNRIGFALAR
Put plainly: In vitro test with pure human renin. Type of assay: biochemical. The note with it: human tetradecapeptide renin substrate (hTD), pH 7.4, 3 hours at 37° C. vs 4° C., angiotensin I measured via RIA. As for the experimental part:
In vitro test with pure human renin
The test is carried out in Eppendorf test tubes. The incubation mixture consists of (1) 100 μl of human renin in buffer A (0.1M sodium phosphate solution, pH 7.4, containing 0.1% bovine serum albumin, 0.1% sodium azide and 1 mM ethylenediaminetetraacetic acid), sufficient for a renin activity of 2-3 ng of angiotensin I/ml/hr.; (2) 145 μl of buffer A; (3) 30 μl of a 10 μM human tetradecapeptide renin substrate (hTD) in 10 mM hydrochloric acid; (4) 15 μl of dimethyl sulphoxide with or without inhibitor and (5) 10 μl of a 0.03 molar solution of hydroxyquinoline sulphate in water.
The samples are incubated for 3 hours at 37° C. or 4° C. in triplicate. 2×100 μl samples per experimental test tube are used in order to measure the production of angiotensin I via RIA (standard radioimmunoassay; clinical assay solid phase kit). Cross reactivities of the antibody used in the RIA are: angiotensin I 100%; angiotensin II 0.0013%; hTD (angiotensin I-Val-Ile-His-Ser-OH) 0.09%. The production of angiotensin I is determined by the difference between the experiment at 37° C. and that at 4° C.
The following controls are carried out:
(a) Incubation of hTD samples without renin and without inhibitor at 37° C. and 4° C. The difference between these two values gives the base value of angiotensin I production.
(b) Incubation of hTD samples with renin, but without inhibitor at 37° C. and 4° C. The difference between these values give the maximal value of angiotensin I production.
In each sample the base value of the angiotensin I production is subtracted from the angiotensin I production which is determined. The difference between the maximal value and the base value gives the value of the maximal substrate hydrolysis (=100%) by renin.
The results are given as IC50 values which denote that concentration of the inhibitor at which the enzymatic activity is inhibited by 50%. The IC50 values are determined from a linear regression curve from a logit-log plot.

Regarding `CC(C)[C@@H](CCOC(=O)C(C)(C)C)C[C@H](O)[C@H](CC1CCCCC1)NC(=O)C(Cc1c[nH]cn1)NC(=O)[C@H](Cc1ccccc1)NC(=O)[C@H]1CCCN1C(=O)OC(C)(C)C` (mixture of isomers) [F, t-butyl (R)-2-[[(S)-α-[[(R and S)-1-[[(1S,2S,4S)-1-(cyclohexylmethyl]-2-hydroxy-4-isopropyl-6-(pivaloyloxy)hexyl]carbamoyl]-2-imidazol-4-ylethyl]carbamoyl]phenethyl]carbamoyl]-1-pyrrolidinecarboxylate], the IC50 was found to be 10 nM.
As for `CC(C)C(CC(O)C(CC1CCCCC1)NC(=O)C(Cc1c[nH]cn1)NC(=O)C(Cc1ccccc1)NC(=O)C1CCCN1C(=O)OC(C)(C)C)C(O)CNCc1ccccn1` (racemic) [I, (2RS,3S,5S,6S)-6-(Boc-D-Pro-Phe-His-NH)-7-cyclohexyl-3-isopropyl-1-[(2-pyridylmethyl)amino]-2,5-heptanediol], the figure is 8 nM; as for `CC(C)C(CC(O)C(CC1CCCCC1)NC(=O)C(Cc1c[nH]cn1)NC(=O)C(Cc1ccccc1)NC(=O)C1CCCN1C(=O)OC(C)(C)C)C(O)CNCCc1ccccc1` (single isomer, unassigned) [G, (2S or R,3S,5S,6S)-6-(Boc-D-Pro-Phe-His-NH)-7-cyclohexyl-3-isopropyl-1-(phenethylamino)-2,5-heptanediol], 11 nM; as for `CC(C)C(CC(O)C(CC1CCCCC1)NC(=O)C(Cc1c[nH]cn1)NC(=O)C(Cc1ccccc1)NC(=O)C1CCCN1C(=O)OC(C)(C)C)C(O)CNCCc1ccccc1` (single isomer, unassigned) [H, (2R or S,3S,5S,6S)-6-(Boc-D-Pro-Phe-His-NH)-7-cyclohexyl-3-isopropyl-1-(phenethylamino)-2,5-heptanediol], 4 nM.
As for `CCCCNC(=O)C[C@@H](C[C@H](O)[C@H](CC1CCCCC1)NC(=O)[C@H](Cc1c[nH]cn1)NC(=O)[C@@H](CC(=O)C(C)(C)C)Cc1ccccc1)C(C)C` [A, (S)-N-[(1S,2S,4R)-4-[(Butylcarbamoyl)methyl]-1-(cyclohexylmethyl)-2-hydroxy-5-methylhexyl]-α-[(R)-α-(3,3-dimethyl-2-oxobutyl)hydrocinnamamido]imidazole-4-propionamide], the figure is 3 nM; as for `CCCCNC(=O)C[C@@H](C[C@H](O)[C@H](CC1CCCCC1)NC(=O)[C@H](Cc1c[nH]cn1)NC(=O)[C@H](Cc1ccccc1)NC(=O)OC(C)(C)C)C(C)C` [B, t-butyl [(S)-α-[[(S)-1-[[(1S,2S,4R)-4-[(butylcarbamoyl)methyl]-1-(cyclohexylmethyl)-2-hydroxy-5-methylhexyl]carbamoyl]-2-imidazol-4-ylethyl]carbamoyl]phenethyl]carbamate], 9 nM; as for `CCCCCC(=O)[C@@H](C[C@H](O)[C@H](CC1CCCCC1)NC(=O)[C@H](Cc1c[nH]cn1)NC(=O)[C@@H](CC(=O)C(C)(C)C)Cc1ccccc1)C(C)C` [C, (S)-N-[(1S,2S,4S)-1-(cyclohexylmethyl)-2-hydroxy-4-isopropyl-5-oxodecyl]-α-[(R)-α-(3,3-dimethyl-2-oxobutyl]hydrocinnamamido]imidazole-4-propionamide], 7 nM.
For `CC(C)[C@@H](/C=C/C(=O)NCc1ccccn1)C[C@H](O)[C@H](CC1CCCCC1)NC(=O)[C@H](Cc1c[nH]cn1)NC(=O)[C@@H](CC(=O)C(C)(C)C)Cc1ccccc1` [D, (S)-N-[(1S,2S,4S,E)-1-(cyclohexylmethyl)-2-hydroxy-4-isopropyl-6-[(2-pyridylmethyl)carbamoyl]-5-hexenyl]-α-[(R)-α-(3,3-dimethyl-2-oxobutyl)hydrocinnamamido]imidazole-4-propionamide] the value was 13 nM; for `CCC(=O)OCC[C@@H](C[C@H](O)[C@H](CC1CCCCC1)NC(=O)[C@H](Cc1c[nH]cn1)NC(=O)[C@H](Cc1ccccc1)NC(=O)OC(C)(C)C)C(C)C` [E, t-butyl [(S)-α-[[(S)-1-[[(1S,2S,4S)-1-(cyclohexylmethyl)-2-hydroxy-4-isopropyl-6-(propionyloxy)hexyl]carbamoyl]-2-imidazol-4-ylethyl]carbamoyl]phenethyl]carbamate], 9 nM.
